Results taken from patent publication US6833372B2, “Non-peptide GnRH agents, Pharmaceutical compositions, and methods for their use” (Pfizer, Inc., priority 2002, dated 2004).

Key:
human GnRH receptors = target: T1, human GnRH receptors (Homo sapiens, UniProt P30968); test: Radioligand binding: inhibition of 125I-GnRH-A binding to human GnRH receptor membranes; conditions: HEK 293 cell membranes
T1 construct: expressed in transfected cells; host or cells: HEK 293 cells, stably transfected; membranes
T1 sequence (P30968 1-328): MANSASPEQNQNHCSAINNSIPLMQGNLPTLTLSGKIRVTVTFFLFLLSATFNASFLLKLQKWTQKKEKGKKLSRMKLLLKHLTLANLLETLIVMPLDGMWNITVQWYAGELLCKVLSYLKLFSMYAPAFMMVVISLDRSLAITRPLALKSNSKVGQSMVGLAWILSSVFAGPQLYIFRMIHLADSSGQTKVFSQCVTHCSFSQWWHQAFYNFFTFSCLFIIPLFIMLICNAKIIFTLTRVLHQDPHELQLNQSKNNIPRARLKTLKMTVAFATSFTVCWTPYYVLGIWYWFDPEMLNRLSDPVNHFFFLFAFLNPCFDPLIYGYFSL
In short: (§1)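 Membranes from rat pituitaries, or HEK 293 cells stably expressing mouse or human receptor, incubated 1 hour at room temperature with ~0.04-0.06 nM radioligand (HEPES pH 7.4, EDTA, MgCl2, BSA) and competitor at 0.1-10,000 nM. Bound ligand collected by GF/C filtration and counted; Ki derived from IC50 by Cheng-Prusoff.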

rat GnRH receptor = target: T2, rat GnRH receptor (Rattus norvegicus, UniProt P30969); test: Radioligand binding: inhibition of 125I-GnRH-A binding to rat GnRH receptor (rat pituitary membranes); conditions: read-out: Ki (nM), Inhibition Binding of 125I-GnRH-A to GnRH Receptors
T2 construct: or rat pituitaries (Pel Freez Biologicals, Rogers, Ark.) were homogenized; tissue Pel Freez Biologicals; host or cells: rat pituitaries (membrane preparation)
T2 sequence (P30969 1-327): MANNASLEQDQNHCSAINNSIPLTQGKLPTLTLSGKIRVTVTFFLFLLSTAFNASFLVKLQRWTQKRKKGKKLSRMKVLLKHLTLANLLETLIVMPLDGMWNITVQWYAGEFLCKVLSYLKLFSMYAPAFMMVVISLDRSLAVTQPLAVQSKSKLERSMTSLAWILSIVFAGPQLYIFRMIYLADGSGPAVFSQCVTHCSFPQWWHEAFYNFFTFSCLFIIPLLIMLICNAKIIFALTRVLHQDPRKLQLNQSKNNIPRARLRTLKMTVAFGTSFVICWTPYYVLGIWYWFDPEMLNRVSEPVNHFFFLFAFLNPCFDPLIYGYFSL
In short: as §1

[1] = In vitro metabolism: disappearance of parent compound in human liver microsomes; format: in vitro ADME; conditions: 5 uM compound, 0.5 mg/ml protein, 2 mM NADPH, 30 minutes 37° C.
In short: (§2)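 Microsomes from human, rat (male, female), dog and monkey liver incubated with 5 uM compound, 0.5 mg/ml protein and 2 mM NADPH in 50 mM K phosphate, pH 7.4, for 30 min at 37° C. Reaction stopped with acetonitrile; parent compound remaining measured by LC-MS.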

[2] = In vitro metabolism: disappearance of parent compound in rat liver microsomes (male, female); format: in vitro ADME; conditions: 5 uM compound, 30 minutes 37° C.; for Fem. Rat (FR) % rem. 30′: female rat liver microsomes; for Male Rat (MR) % rem. 30′: male rat liver microsomes
In short: as §2

[3] = In vitro metabolism: disappearance of parent compound in dog liver microsomes; format: in vitro ADME; conditions: 5 uM compound, 30 minutes 37° C.
Protocol: (§3) Human, rat, dog, and monkey liver microsomes were isolated by differential centrifugation. Specimens of human liver were obtained from the International Institute for the Advancement of Medicine (Scranton, Pa.). The disappearance of the parent compound was studied in a mixture containing 5 uM compound, 0.5 mg/ml microsomal protein, and 2 mM NADPH in 50 mM K phosphate buffer, pH 7.4. Samples were incubated for 30 minutes at 37° C. The reaction was terminated by the addition of acetonitrile and compounds analyzed by LC-MS as described above.

[4] = In vitro metabolism: disappearance of parent compound in monkey liver microsomes; format: in vitro ADME; conditions: 5 uM compound, 30 minutes 37° C.
Protocol: as §3

[5] = Pharmacokinetics in rats (jugular vein cannula, plasma LC-MS); format: in vivo, Rat; conditions: female rat, 10 mg/kg as 5 mg/ml solution in 10% DMSO, 10% cremophor, 80% saline (footnote 5); for Cmax / half-life / Tmax: female, rat, plasma, po, 10 mg/kg; for Cmax: read-out: FR Cmax; for half-life: read-out: FR T1/2 hr (converted); for Tmax: read-out: FR Tmax hr
Protocol: Rats (male or female, 200-225 g) were prepared with indwelling jugular vein cannula as described by Harms et al., Applied Physiol. 36:391-398 (1974), and allowed to recover overnight with free access to the standard vivarium chow and water. […] […] The blood samples were withdrawn at specific times, plasma was immediately separated and compound extracted with ethyl acetate. The samples were analyzed by LC-MS using 30-90% gradient of ACN in 50 mM ammonium acetate.
The pharmacokinetic parameters were calculated using WinNonlin software (Scientific Consulting Inc.). The bioavailability was calculated as AUCp.o./AUCi.v., where AUCp.o. and AUC i.v. are areas under the plasma concentration-time curve after oral and i.v. administration, respectively.

Rat plasma % remain = format: in vitro ADME
H S A = H S A (Homo sapiens, UniProt P02768); test: H S A column α; format: in vitro ADME
Sequence of H S A (P02768 25-609): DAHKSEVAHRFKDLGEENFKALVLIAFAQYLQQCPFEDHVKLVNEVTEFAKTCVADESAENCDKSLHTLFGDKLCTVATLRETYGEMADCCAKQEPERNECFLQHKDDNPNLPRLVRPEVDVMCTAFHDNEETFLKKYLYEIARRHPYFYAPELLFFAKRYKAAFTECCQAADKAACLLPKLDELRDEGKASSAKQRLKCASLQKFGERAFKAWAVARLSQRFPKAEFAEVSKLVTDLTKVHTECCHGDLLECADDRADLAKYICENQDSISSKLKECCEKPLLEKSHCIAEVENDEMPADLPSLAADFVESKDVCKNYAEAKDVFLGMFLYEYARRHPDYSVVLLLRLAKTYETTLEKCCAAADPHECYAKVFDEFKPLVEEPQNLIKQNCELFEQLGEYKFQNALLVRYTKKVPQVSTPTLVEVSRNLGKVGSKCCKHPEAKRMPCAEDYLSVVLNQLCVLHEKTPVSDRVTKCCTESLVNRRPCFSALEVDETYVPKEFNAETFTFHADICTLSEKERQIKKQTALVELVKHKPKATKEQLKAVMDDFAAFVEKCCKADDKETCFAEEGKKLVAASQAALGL

[6] = Solubility at pH2 and pH6; format: physicochemical; conditions: pH 6, aqueous buffer, pH6; read-out: Solubility μg/ml pH6
mouse GnRH receptors = target: T3, mouse GnRH receptors (Mus musculus, UniProt Q01776); test: Radioligand binding: inhibition of 125I-GnRH-A binding to mouse GnRH receptor membranes; conditions: HEK 293 cell membranes
T3 construct: expressed in transfected cells; host or cells: HEK 293 cells, stably transfected; membranes
T3 sequence (Q01776 1-327): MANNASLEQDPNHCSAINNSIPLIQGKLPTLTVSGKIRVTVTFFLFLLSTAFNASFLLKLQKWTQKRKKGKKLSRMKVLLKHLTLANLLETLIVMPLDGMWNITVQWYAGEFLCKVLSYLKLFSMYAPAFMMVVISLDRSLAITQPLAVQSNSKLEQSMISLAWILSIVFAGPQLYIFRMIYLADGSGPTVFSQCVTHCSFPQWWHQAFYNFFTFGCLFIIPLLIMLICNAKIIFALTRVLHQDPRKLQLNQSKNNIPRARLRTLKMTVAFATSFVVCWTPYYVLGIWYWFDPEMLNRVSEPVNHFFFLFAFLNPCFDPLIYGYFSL
Protocol: HEK 293 cells stably transfected with mouse or human GnRH receptors as described above were grown in Dulbecco's high-glucose, modified Eagle's medium (DMEM) supplemented with 0.2% G418, 10% fetal bovine serum (FBS) and 100 U/mL penicillin/streptomycin. GH3 cells stably transfected with the rat GnRH receptor (GGH3) were provided by Dr. William Chin (Harvard Medical School, Boston, Mass.). These cells have been extensively characterized previously (Kaiser et al., 1997). The cells were grown in low glucose DMEM containing: 100U/mL penicillin/streptomycin, 0.6% G418 and 10% heat-inactivated FBS.
HEK 293 cells containing mouse or human receptors, or rat pituitaries (Pel Freez Biologicals, Rogers, Ark.) were homogenized in buffer A containing: 50 mM Tris (pH 7.4), 0.32 M sucrose, 2 mM EGTA, 1 mM PMSF, 5 μg/ml aprotinen, 5 μg/ml Pepstatin A, and 1 μg/ml leupeptin. Homogenized cells were centrifuged at 4° C. at 20,000×g for 25 minutes, re-suspended in buffer A and re-centrifuged at 4° C. at 20,000×g for an additional 25 minutes. Total membrane protein was determined with a BCA kit (Pierce, Rockford, Ill.). Membranes were stored at −70° C. at a final membrane protein concentration of approximately 5 mg/ml.
The radioiodinated agonist analog of GnRH, [des-Gly^10,D-Ala^6]GnRH ethylamide (^125I-GnRH-A), was used as the radioligand. […] The reaction mixture was vortexed and incubated for 1 minute at room temperature. After one minute, the mixture was vortexed and allowed to incubate for an additional minute. 2 ml of 0.5 M acetic acid/1% BSA was added to the reaction tube and the mixture was added to a C18 Sep-Pak cartridge. The cartridge was washed with subsequent washes of 5 ml H2O and 5 ml 0.5 M acetic acid and then eluted with 5×1 ml of 60% CH3CN/40% 0.5 M acetic acid. The eluate was diluted with 3× volume of HPLC buffer A (0.1% TFA in H2O) and loaded onto a C18 column. The iodinated product was eluted over 20-25 min with a gradient of 25-100% CH3CN containing 0.1% TFA. The radioactive fractions (750 μl/fraction) were collected into clean polypropylene tubes containing 100 μl of 10% BSA. Fractions were assessed for biological activity by radioligand binding. Specific activity of the radioligand was approximately 2200 Ci/mmol.
Membranes were diluted to 0.01-0.5 mg/ml (depending upon the species of receptor) with assay buffer containing 50 mM HEPES (pH 7.4), 1 mM EDTA, 2.5 mM MgCl2, and 0.1% BSA. Membranes (diluted to utilize similar receptor numbers between assays) were incubated with approximately 0.04-0.06 nM ^125I-GnRH-A in the presence or absence of competing agents (0.1-10,000 nM) in a total volume of 200 μl in 96-well polypropylene plates for 1 hour at room temperature. Assays were stopped by rapid filtration onto 96-well GF/C filters soaked in 0.1% polyethylenimine (PEI) utilizing a Packard 96-well cell harvester. Filters were washed three times with ice-cold PBS (50 mM NaPO4, 0.9% NaCl, 2 mM MgCl2, and 0.02% NaN3, pH 7.4). 35 μl of scintillation cocktail was added to each filter well and filters were counted on a Packard Topcount. Control dose-response curves were generated to GnRH (0.1 nM-100 nM) in each competition binding experiment. Ki values were calculated from IC50 values according to Cheng et al., Biochemical Pharmacol. 22: 3099-3108, 1973. [formula]

| SMILES | Ki (human GnRH receptors) | Ki (rat GnRH receptor) | Human % rem. 30′ [1] | Fem. Rat (FR) % rem. 30′ [2] | Male Rat (MR) % rem. 30′ [2] | Dog % rem. 30′ [3] | Monkey % rem. [4] | FR Fp.o. [5] | Cmax [5] | half-life [5] | Tmax [5] | Rat plasma % remain (Rat plasma % remain) | H S A column α (H S A) | solubility [6] | Ki (mouse GnRH receptors) |
| --- | --- | --- | --- | --- | --- | --- | --- | --- | --- | --- | --- | --- | --- | --- | --- |
| COc1nc(Nc2ccccc2)nc(OC)c1NC(=O)c1ccc(Cc2cc3c(cc2C)C(C)(C)OC3(C)C)o1 [Example D1, 5-(1,1,3,3,6-Pentamethyl-1,3-dihydro-isobenzofuran-5-ylmethyl)-furan-2-carboxylic Acid (4,6-dimethoxy-2-phenylamino-pyrimidin-5-yl)-amide] | 1.6 nM | 2.1 nM | 82% | 81% | 20% | 52% | 22% | 2%^5 | 100 nM | 1.2 h | 1 h | 100% | 8 | > 15 µg/mL | – |
| COc1nc(NCCN2CCCC2)nc(OC)c1NC(=O)c1ccc(Cc2cc3c(cc2C)C(C)(C)OC3(C)C)o1 [Example D23, N-{4,6-Dimethoxy-2-[(2-pyrrolidin-1-ylethyl)amino]-pyrimidin-5-yl}-5-[(1,1,3,3,6-pentamethyl-1,3-dihydro-2-benzofuran-5-yl)methyl]-2-furamide Acetate] | 1.6 nM | 0.92 nM | – | – | – | – | – | – | – | – | – | – | – | – | 1.7 nM |

Results, then the compound that gave them:

| Ki (human GnRH receptors) | Ki (rat GnRH receptor) | Human % rem. 30′ [1] | Fem. Rat (FR) % rem. 30′ [2] | Male Rat (MR) % rem. 30′ [2] | Dog % rem. 30′ [3] | Monkey % rem. [4] | FR Fp.o. [5] | Cmax [5] | half-life [5] | Tmax [5] | Rat plasma % remain (Rat plasma % remain) | H S A column α (H S A) | solubility [6] | Ki (mouse GnRH receptors) | SMILES |
| --- | --- | --- | --- | --- | --- | --- | --- | --- | --- | --- | --- | --- | --- | --- | --- |
| 1.7 nM | 0.9 nM | 79% | 92% | 80% | 70% | 0% | 10%^5 | 200 nM | 4.1 h | 2 h | 92% | >30 | – | – | COc1nc(NCCCN2CCOCC2)nc(OC)c1NC(=O)c1ccc(Cc2cc3c(cc2Cl)C(C)(C)CCC3(C)C)o1 [Example G1, 5-(3-Chloro-5,5,8,8-tetramethyl-5,6,7,8-tetrahydro-naphthalen-2-ylmethyl)-furan-2-carboxylic acid[4,6-dimethoxy-2-(3-morpholin-4-yl-propylamino)-pyrimidin-5-yl]-amide] |
| 4.7 nM | 14 nM | – | – | – | – | – | – | – | – | – | – | – | – | 5.3 nM | COc1nc(N2CCOCC2)nc(OC)c1NC(=O)c1ccc(Cc2cc3c(cc2C)C(C)(C)CCC3(C)C)o1 [Example B3, 5-(3,5,5,8,8-Pentamethyl-5,6,7,8-tetrahydro-naphthalen-2-ylmethyl)-furan-2-carboxylic Acid (4,6-dimethoxy-2-morpholin-4-yl-pyrimidin-5-yl)-amide] |
| 6 nM | 2.2 nM | 91% | 95% | 91% | 91% | 16% | 30%^5 | 500 nM | 4.1 h | 2 h | 100% | 2 | – | – | CCN(CC)CCNc1nc(OC)c(NC(=O)c2ccc(Cc3cc4c(cc3C)C(C)(C)OC4(C)C)o2)c(OC)n1 [Example D7, N-(2-{[2-(Diethylamino)ethyl]amino}-4,6-dimethoxypyrimidin-5-yl)-5-[(1,1,3,3,6-pentamethyl-1,3-dihydro-2-benzofuran-5-yl)methyl]-2-furamide] |
